One assay has as its system triglycerides. As to the kind of experiment: Triglyceride levels pre- and post-treatment. Format: in vivo, human. Particulars: for No. of subjects outside normal range, triglycerides: 15 subjects.
Another assay has as its system LDL cholesterol. Particulars: resulting from treatment, 3 weeks. As to the method:
(§1) Endothelium-dependent vasodilation was assessed by brachial artery ultrasound using computer-assisted image analysis; ADMA and L-arginine plasma concentrations were determined by a validated HPLC method.
(§2) In the study described in Example 15, the change in total cholesterol (TC), LDL cholesterol, HDL cholesterol, and triglycerides was analyzed pre- and post-treatment.

The next assay concerns HDL cholesterol. Particulars: resulting from treatment, 3 weeks. As to the method:
as §1, §2

The subject of a further assay is total cholesterol. As to the kind of experiment: Change in total cholesterol levels. Format: in vivo, human. Particulars: resulting from treatment, 3 weeks. As for the experimental part: as §1, §2
Setting [1] is: resulting from treatment, 3 weeks.

`CCC(C)(C)C(=O)O[C@H]1C[C@@H](C)C=C2C=C[C@H](C)[C@H](CC[C@@H]3C[C@@H](O)CC(=O)O3)[C@H]21` [Simvastatin, simvastatin]: in the assay with triglycerides (after treatment, 3 weeks), the “Triglyceride Levels, Mean” value was found to be 140.2 mg/dL; the “Triglyceride Levels, Median” value is on record as 134.0 mg/dL; the “Triglyceride Levels, Min-Max” value is 58 to 440 mg/dL; the “No. of subjects outside normal range, triglycerides” value was 1. Moreover, in the assay on triglycerides (before treatment), the “Triglyceride Levels, Mean” value was found to be 165.1 mg/dL; the “Triglyceride Levels, Median” value is given as 155.0 mg/dL; the “Triglyceride Levels, Min-Max” value lay in the range of 51 to 337 mg/dL; the “No. of subjects outside normal range, triglycerides” value stood at 5. Also, in the assay with triglycerides (setting [1]), the “Change in Triglyceride Levels, Mean” value is -24.9 mg/dL; the “Change in Triglyceride Levels, Median” value is -38.0 mg/dL; the “Change in Triglyceride Levels, Min-Max” value was -143 to 205 mg/dL. Also, in the assay with LDL cholesterol, the “Change in Low Density Lipoprotein Cholesterol Levels, Mean” value was -70.7 mg/dL; the “Change in Low Density Lipoprotein Cholesterol Levels, Median” value was -78.0 mg/dL; the “Change in Low Density Lipoprotein Cholesterol Levels, Min-Max” value is -121 to -20 mg/dL. In addition, in the assay on HDL cholesterol, the “Change in High Density Lipoprotein Cholesterol Levels, Mean” value is 1.2 mg/dL; the “Change in High Density Lipoprotein Cholesterol Levels, Median” value is reported as 0.0 mg/dL; the “Change in High Density Lipoprotein Cholesterol Levels, Min-Max” value was -7 to 20 mg/dL. Also, in the assay with total cholesterol, the “Change in Total Cholesterol Levels, Mean” value is -76.3 mg/dL; the “Change in Total Cholesterol Levels, Median” value was -78.0 mg/dL; the “Change in Total Cholesterol Levels, Min-Max” value was -134 to -14 mg/dL.

(Values after patent US20050288373A1, “Methods of treating various conditions by administration of sustained release L-arginine” (priority 2002, published 2005).)
